Test results as given in US4308201A, “Phenylalanylvalylarginine derivative, process for producing same and method for measuring activity of enzymes using same” (Torii & Co., Ltd., priority 1978, dated 1981).
Residues, ends and D or L forms follow the SMILES beside them. *: point of attachment. pNA = O=[N+]([O-])c1ccc(N*)cc1; Bz = O=C(c1ccccc1)*

Tests used:
Format in all cases: biochemical
[1] = test system: thrombin; assay: Measurement of the activity of thrombin with the compound as substrate (naphthol liberated, FVB colour, absorbance); conditions: for relative sensitivity, Thrombin: methods of Example 3 and Comparative Example 2, p-nitroanilide substrate = 1.0
Description: To 1.7 ml of 50 mM phosphate buffer solution (pH 7.0) were added 0.1 ml of thrombin at various concentrations and 0.2 ml of N-benzoyl-L-phenylalanyl-L-valyl-L-arginine 1-naphthyl ester hydrochloride solution (1.5 mM), and the resulting mixture was subjected to incubation at 25° C. for 30 min. The mixture was cooled in iced water, and 0.1 ml of 1% FVB was added thereto. The resulting mixture was allowed to stand at 0° C. for 10 min, and 1 ml of glacial acetic acid was further added thereto. The color thus developed was measured as absorbance (505 nm) by means of a spectrophotometer, thereby determining the amount of the naphthol liberated by hydrolysis with the enzyme. As a control, the buffer solution same as above but free from thrombin was used. The amount of the naphthol liberated corresponded to the activity of the enzyme.
To 0.1 ml of thrombin were added 0.3 ml of Nα-tosyl-L-arginine methyl ester hydrochloride solution (10 micromoles/0.4 ml of 5% DMSO) and 0.6 ml of phosphate buffer solution (pH 7.4), and the resulting mixture was subjected to incubation at 37° C. for 30 min, after which 1.5 ml of a hydroxylamine solution (a mixture of equal amounts of 2 M NH2 OH hydrochloride and 3.5 M NaOH) was added thereto. The resulting mixture was allowed to stand at room temperature for 15 min. Thereto were added 1 ml of 18% trichloroacetic acid solution, 1 ml of 4 N hydrochloric acid, and 1 ml of 10% ferric chloride solution. The resulting mixture was thoroughly stirred and then centrifuged at 3,000 r.p.m. for 10 min. The color thus developed of the supernatant was measured as absorbance (530 l nm) by means of a spectrophotometer. The value obtained corresponds to the amount of the substrate remaining unhydrolyzed with thrombin, and therefore, and activity of the enzyme corresponds to the difference between the value obtained when no enzyme was used (control) and the value obtained after the enzyme reaction.
To 2.15 ml of […] tris HCl buffer solution (pH 8.0) were added 0.1 ml of thrombin at various concentrations and 0.25 ml of an N-benzoyl-L-phenylalanyl-L-valyl-L-arginine p-nitroanilide hydrochloride solution (1mM/H2 O), and the resulting mixture was subjected to incubation at 37° C. for 30 min. To the mixture was added 0.3 ml of glacial acetic acid, and the color developed was measured as absorbance (405 nm) by means of a spectrophotometer.

[2] = test system: Kallikrein Plasma; assay: Measurement of the activity of plasma kallikrein with the compound as substrate; conditions: methods of Example 3 and Comparative Example 2; p-nitroanilide substrate = 1.0
[3] = test system: Kallikrein Tissue; assay: Measurement of the activity of tissue kallikrein with the compound as substrate; conditions: methods of Example 3 and Comparative Example 2; p-nitroanilide substrate = 1.0
[4] = test system: Factor Xa; assay: Measurement of the activity of Factor Xa with the compound as substrate; conditions: methods of Example 3 and Comparative Example 2; p-nitroanilide substrate = 1.0
[5] = test system: Urokinase; assay: Measurement of the activity of urokinase with the compound as substrate; conditions: methods of Example 3 and Comparative Example 2; p-nitroanilide substrate = 1.0

| SMILES | relative sensitivity, Thrombin [1] | sensitivity relative to that of Nα-tosyl-L-arginine methyl ester ([1]; thrombin activity measured with the compound as substrate) | detection sensitivity relative to Comparative Example 2 ([1]; versus N-benzoyl-L-phenylalanyl-L-valyl-L-arginine p-nitroanilide hydrochloride as substrate, standard curves of the drawing) | detection sensitivity relative to Comparative Example 1 ([1]; versus Nα-tosyl-L-arginine methyl ester hydrochloride as substrate (hydroxamate method), standard curves of the drawing) | relative sensitivity, Kallikrein Plasma [2] | relative sensitivity, Kallikrein Tissue [3] | relative sensitivity, Factor Xa [4] | relative sensitivity, Urokinase [5] |
| --- | --- | --- | --- | --- | --- | --- | --- | --- |
| CC(C)[C@H](NC(=O)[C@H](Cc1ccccc1)NC(=O)c1ccccc1)C(=O)N[C@@H](CCCNC(=N)N)C(=O)Oc1cccc2ccccc12.Cl [N-benzoyl-L-phenylalanyl-L-valyl-L-arginine 1-naphthyl ester hydrochloride] | 5.0 | about 31 times | about 5 times | about 30 times | 12.5 | 30 | 15 | 40 |
| CC(C)[C@H](NC(=O)[C@H](Cc1ccccc1)NC(=O)c1ccccc1)C(=O)N[C@@H](CCCNC(=N)N)C(=O)Nc1ccc([N+](=O)[O-])cc1.Cl [N-benzoyl-L-phenylalanyl-L-valyl-L-arginine p-nitroanilide hydrochloride, reference compound] (Bz-Phe-Val-Arg-pNA) | 1.0 | – | – | – | 1.0 | 1.0 | 1.0 | 1.0 |
